Earlier results as cited in patent US7056534B2, “Coated potassium chloride granules and tablets” (Upsher-Smith Laboratories, Inc., priority 2001, dated 2006).
Like-named read-outs stand apart in the source and are kept apart here.

What does the source list for [Cl-].[K+] [Potassium chloride]?
Solubility (acetone): insoluble; Volume of solvent in which 1 gram dissolves (boiling water): 1.8 mL; Solubility (ether): insoluble; Volume of solvent in which 1 gram dissolves (ethyl alcohol): about 250 ml; Volume of solvent in which 1 gram dissolves (glycerol): 14 mL; Volume of solvent in which 1 gram dissolves (water): 2.8 mL
